Data from patent US12336981B2, “Compounds and compositions for the inhibition of NAMPT” (Valo Health, Inc., priority 2010, dated 2025).

Assays:
NAMPT = target: T1, NAMPT (Homo sapiens, UniProt P43490); assay: Biochemical inhibition assay: NAMPT enzymatic reaction, NMN quantified by mass spectrometry; settings: NAMPT enzymatic reaction; read-out: Biochem IC50
T1 construct: His tag; host or cells: E. coli
Outline: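 Inhibition of E. coli-expressed His-tagged human NAMPT, measured as NMN formation by mass spectrometry after a 30 min room-temperature reaction containing 1 μM NAM, 100 μM PRPP and 2.5 mM ATP.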

A2780 cells = assay: In-vitro cell proliferation assay (SRB), A2780 cells; type: cell-based; settings: Homo sapiens, A2780, 72 h, A2780 cells, 72 hours, SRB; read-out: A2780 IC50
Outline: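 Read-out is SRB absorbance at 570 nm on TCA-fixed cells after 72 hours of compound treatment at 37° C. in 5% CO2. Background from a media-only plate is subtracted, and % inhibition is interpolated between two tested concentrations.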

T1 sequence (P43490 whole entry): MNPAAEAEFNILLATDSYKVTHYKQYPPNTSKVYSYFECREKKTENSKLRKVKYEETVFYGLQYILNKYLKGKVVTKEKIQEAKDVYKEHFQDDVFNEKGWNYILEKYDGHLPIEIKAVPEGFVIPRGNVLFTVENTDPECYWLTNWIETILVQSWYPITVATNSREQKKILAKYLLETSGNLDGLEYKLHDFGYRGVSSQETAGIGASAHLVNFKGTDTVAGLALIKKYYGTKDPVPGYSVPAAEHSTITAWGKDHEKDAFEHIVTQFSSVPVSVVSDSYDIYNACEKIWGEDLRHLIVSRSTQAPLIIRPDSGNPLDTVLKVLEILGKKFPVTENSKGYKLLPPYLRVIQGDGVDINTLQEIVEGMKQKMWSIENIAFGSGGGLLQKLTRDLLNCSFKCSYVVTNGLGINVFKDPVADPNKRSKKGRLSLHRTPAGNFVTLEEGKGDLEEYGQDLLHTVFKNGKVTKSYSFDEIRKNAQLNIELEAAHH

Row | Structure (SMILES) | IC50 (NAMPT) [nM] | IC50 (A2780 cells) [nM]
1 | COc1cc(S(=O)(=O)c2ccc(CNC(=O)c3cnc4nccn4c3)cc2)ccc1C | 1.3 | 1.7
2 | COc1cc(S(=O)(=O)c2ccc(CNC(=O)c3cc4ccncc4o3)cc2)ccc1C | 4.6 | 3.1
3 | COc1cc(C)cc(S(=O)(=O)c2ccc(CNC(=O)c3cc4cnccc4[nH]3)cc2)c1 | 9.6 | 2.8
4 | COc1cc(C)cc(S(=O)(=O)c2ccc(CNC(=O)c3cnc4nccn4c3)cc2)c1 | 1.6 | 1.3
5 | COc1cc(C)cc(S(=O)(=O)c2ccc(CNC(=O)c3cc4ccncc4o3)cc2)c1 | 2.2 | 1.6
6 | COc1cc(C)cc(S(=O)(=O)c2ccc(CNC(=O)c3ccc4nccn4c3)cc2)c1 | 5.3 | 1.6
7 | COc1cc(C)cc(S(=O)(=O)c2ccc(CNC(=O)c3cc4ccncc4s3)cc2)c1 | 2.4 | 0.8
8 | COc1cccc(S(=O)(=O)c2ccc(CNC(=O)c3cnc4[nH]ncc4c3)cc2)c1 | 20.9 | 10
9 | COc1cccc(S(=O)(=O)c2ccc(CNC(=O)c3cc4ccncc4o3)cc2)c1 | 3.5 | 6.9
10 | Cc1cccc(S(=O)(=O)c2ccc(CNC(=O)c3cnc4nccn4c3)cc2)c1 | 1.9 | 9.1
11 | O=C(NCc1ccc(S(=O)(=O)c2cccc(-c3ccccc3)c2)cc1)c1cc2cnccc2[nH]1 | 2.3 | 11.9
12 | O=C(NCc1ccc(S(=O)(=O)c2cccc(-c3ccccc3)c2)cc1)c1ccc2nccn2c1 | 12.2 | 6.8
13 | O=C(NCc1ccc(S(=O)(=O)c2cccc(-c3ccccc3)c2)cc1)c1cnc2nccn2c1 | 0.9 | 3.3
14 | O=C(NCc1ccc(S(=O)(=O)c2cccc(-c3ccccc3)c2)cc1)c1cc2ccncc2s1 | 4.5 | 10
15 | CCCOc1cccc(S(=O)(=O)c2ccc(CNC(=O)c3cc4cnccc4[nH]3)cc2)c1 | 10.2 | 12.2
16 | CCCOc1cccc(S(=O)(=O)c2ccc(CNC(=O)c3cc4ccncc4o3)cc2)c1 | 10.1 | 25.2
17 | CCCOc1cccc(S(=O)(=O)c2ccc(CNC(=O)c3ccc4nccn4c3)cc2)c1 | 4.2 | 6.3
18 | CCCOc1cccc(S(=O)(=O)c2ccc(CNC(=O)c3cnc4nccn4c3)cc2)c1 | 4.8 | 7.5
19 | CCCOc1cccc(S(=O)(=O)c2ccc(CNC(=O)c3cc4ccncc4s3)cc2)c1 | 4 | 12.2

Row | Structure (SMILES) | IC50 (NAMPT) [nM] | IC50 (A2780 cells) [nM]
20 | NS(=O)(=O)c1cccc(S(=O)(=O)c2ccc(CNC(=O)c3cc4ccncc4s3)cc2)c1 | 2 | 12.1
21 | NS(=O)(=O)c1cccc(S(=O)(=O)c2ccc(CNC(=O)c3ccc4nccn4c3)cc2)c1 | 10.3 | 54.6
22 | CC(C)(C)c1cccc(S(=O)(=O)c2ccc(CNC(=O)c3cnc4nccn4c3)cc2)c1 | < 0.65 | 1.2
23 | CC(C)(C)c1cccc(S(=O)(=O)c2ccc(CNC(=O)c3cc4ccncc4o3)cc2)c1 | 9.3 | 7
24 | CC(C)(C)c1cccc(S(=O)(=O)c2ccc(CNC(=O)c3cc4ccncc4s3)cc2)c1 | 10.5 | 9.1
25 | CC(=O)c1ccc(S(=O)(=O)c2ccc(CNC(=O)c3cnc4[nH]ncc4c3)cc2)cc1 | 28.9 | 3.7
26 | CC(=O)c1ccc(S(=O)(=O)c2ccc(CNC(=O)c3cnc4nccn4c3)cc2)cc1 | 5.2 | 6.5
27 | CCCCOc1ccc(S(=O)(=O)c2ccc(CNC(=O)c3cc4ccncc4s3)cc2)c(C)c1 | 3.3 | 100 to 1000
28 | CCCCOc1ccc(S(=O)(=O)c2ccc(CNC(=O)c3cc4cnccc4[nH]3)cc2)c(C)c1 | 80 | 62.5
29 | CCCCOc1ccc(S(=O)(=O)c2ccc(CNC(=O)c3ccc4nccn4c3)cc2)c(C)c1 | 10 | 22.4
30 | CCCCOc1ccc(S(=O)(=O)c2ccc(CNC(=O)c3cc4ccncc4o3)cc2)c(C)c1 | 16 | 64.8
31 | CCCCOc1ccc(S(=O)(=O)c2ccc(CNC(=O)c3cc4ccncc4o3)cc2)cc1Cl | 4.7 | 10
32 | CCCCOc1ccc(S(=O)(=O)c2ccc(CNC(=O)c3cnc4[nH]ncc4c3)cc2)cc1Cl | 4.5 | 11.1
33 | CCCCOc1ccc(S(=O)(=O)c2ccc(CNC(=O)c3cc4ccncc4s3)cc2)cc1Cl | 4.8 | 12.5
34 | CCCCOc1ccc(S(=O)(=O)c2ccc(CNC(=O)c3cc4cnccc4[nH]3)cc2)cc1Cl | 17.8 | 12.4
35 | CCCCOc1ccc(S(=O)(=O)c2ccc(CNC(=O)c3ccc4nccn4c3)cc2)cc1Cl | 4.1 | 7.6
36 | CCCCOc1ccc(S(=O)(=O)c2ccc(CNC(=O)c3cc4cnccc4[nH]3)cc2)cc1F | 53.6 | 13.4
37 | COc1cc(F)c(F)cc1S(=O)(=O)c1ccc(CNC(=O)c2cnc3nccn3c2)cc1 | 11.9 | 24.9
